Results from patent publication US20260098026A1, “M4 ACTIVATORS/MODULATORS AND USES THEREOF” (Cerevel Therapeutics, LLC, priority 2022, published 2026).

Assays:
Type in all cases: cell-based
[1] = molecular target: T1, M1 muscarinic acetylcholine receptor (mAChR) (Homo sapiens, UniProt P11229); experiment: FLIPR calcium assay (Fluo 8), M1-overexpressing CHO-K1 cells
T1 construct: expressed in transfected cells; host or cells: CHO-K1
T1 sequence (P11229 1-460): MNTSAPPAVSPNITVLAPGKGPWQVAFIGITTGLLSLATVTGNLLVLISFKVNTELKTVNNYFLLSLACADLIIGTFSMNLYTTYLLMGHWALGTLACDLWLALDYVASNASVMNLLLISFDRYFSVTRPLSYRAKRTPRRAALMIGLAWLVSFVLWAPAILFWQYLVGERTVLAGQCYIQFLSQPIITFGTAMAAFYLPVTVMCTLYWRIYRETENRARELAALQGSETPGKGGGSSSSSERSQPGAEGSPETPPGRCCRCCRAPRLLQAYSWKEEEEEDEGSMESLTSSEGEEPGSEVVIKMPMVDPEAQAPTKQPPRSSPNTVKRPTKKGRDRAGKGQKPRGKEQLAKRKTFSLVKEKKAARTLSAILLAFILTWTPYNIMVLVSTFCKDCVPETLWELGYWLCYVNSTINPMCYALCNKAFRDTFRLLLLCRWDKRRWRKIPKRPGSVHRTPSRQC
Procedure: (§1) Stimulation of a Gq-coupled G-protein coupled receptors (GPCRs), result in an efflux of calcium from the endoplasmic reticulum to the cytoplasm (Berridge, 1993), thus rendering this assay appropriate for the assessment of M1, M3 and M5 receptors. CHO-K1 cells overexpressing the M1, M3, or M5 muscarinic acetylcholine receptor (mAChR) were dispensed at 15,000 cells per well in 30 μl volume to 384-well plates and grown overnight at 37° C. in a 5% CO2 atmosphere. Fluo-8 Solution, 10 μl per well, was added to each well and incubated for 30 minutes at 37° C. in a 5% CO2 atmosphere. Compounds diluted in Hanks' balanced salt solution (HBSS) were transferred to the cell assay plate at 10 μl per well, and then read on a FLIPR instrument. EC50 and Emax figures were calculated from the resulting data for each receptor subtype.

M4 mAChR = molecular target: T2, M4 mAChR (Homo sapiens, UniProt P08173); experiment: cAMP TR-FRET assay with forskolin, M4-overexpressing CHO-K1 cells
T2 construct: expressed in transfected cells; host or cells: CHO-K1
T2 sequence (P08173 1-479): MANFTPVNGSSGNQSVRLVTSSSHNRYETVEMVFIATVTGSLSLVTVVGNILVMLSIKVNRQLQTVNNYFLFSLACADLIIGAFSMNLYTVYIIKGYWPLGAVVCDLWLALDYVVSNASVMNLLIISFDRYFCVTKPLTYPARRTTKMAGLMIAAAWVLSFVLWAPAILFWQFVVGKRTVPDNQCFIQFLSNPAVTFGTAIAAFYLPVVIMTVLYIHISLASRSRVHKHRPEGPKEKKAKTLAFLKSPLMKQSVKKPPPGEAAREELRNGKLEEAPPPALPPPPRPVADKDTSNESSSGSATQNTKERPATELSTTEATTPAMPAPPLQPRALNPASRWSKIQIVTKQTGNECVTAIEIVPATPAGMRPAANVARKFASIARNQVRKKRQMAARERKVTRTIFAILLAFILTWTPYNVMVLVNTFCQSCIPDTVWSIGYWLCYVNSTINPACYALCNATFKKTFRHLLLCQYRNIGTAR
How it was run: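 CHO-K1 cells overexpressing the receptor were stimulated with forskolin to raise cAMP, so that Gi-mediated agonist decreases could be measured. cAMP was quantified by TR-FRET competition between cellular cAMP and labelled donor for anti-cAMP antibody, giving potency and efficacy.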

[2] = molecular target: T3, M3 muscarinic acetylcholine receptor (mAChR) (Homo sapiens, UniProt P20309); experiment: FLIPR calcium assay (Fluo 8), M3-overexpressing CHO-K1 cells
T3 construct: expressed in transfected cells; host or cells: CHO-K1
How it was run: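 CHO-K1 cells overexpressing each human receptor seeded at 15,000 per well, grown overnight at 37° C., 5% CO2, then loaded with Fluo-8 for 30 min. Compounds in HBSS added and calcium response read on FLIPR; EC50 and Emax calculated per subtype.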

[3] = molecular target: T4, M5 muscarinic acetylcholine receptor (mAChR) (Homo sapiens, UniProt P08912); experiment: FLIPR calcium assay (Fluo 8), M5-overexpressing CHO-K1 cells
T4 construct: expressed in transfected cells; host or cells: CHO-K1
T4 sequence (P08912 1-532): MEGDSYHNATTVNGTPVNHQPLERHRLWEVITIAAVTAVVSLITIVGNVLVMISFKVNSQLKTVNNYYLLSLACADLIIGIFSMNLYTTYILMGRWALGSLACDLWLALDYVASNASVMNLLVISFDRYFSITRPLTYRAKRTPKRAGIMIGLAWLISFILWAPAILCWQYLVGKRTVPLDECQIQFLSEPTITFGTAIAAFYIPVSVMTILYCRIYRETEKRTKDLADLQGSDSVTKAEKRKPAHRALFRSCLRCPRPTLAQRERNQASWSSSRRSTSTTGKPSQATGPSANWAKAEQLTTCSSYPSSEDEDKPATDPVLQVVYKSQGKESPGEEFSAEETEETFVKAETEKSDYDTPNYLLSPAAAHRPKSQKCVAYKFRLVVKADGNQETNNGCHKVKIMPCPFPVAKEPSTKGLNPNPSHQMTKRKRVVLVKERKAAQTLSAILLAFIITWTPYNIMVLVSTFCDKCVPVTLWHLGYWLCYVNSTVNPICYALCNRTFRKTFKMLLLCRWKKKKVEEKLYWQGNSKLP
Procedure: as §1

T3 sequence (P20309 whole entry): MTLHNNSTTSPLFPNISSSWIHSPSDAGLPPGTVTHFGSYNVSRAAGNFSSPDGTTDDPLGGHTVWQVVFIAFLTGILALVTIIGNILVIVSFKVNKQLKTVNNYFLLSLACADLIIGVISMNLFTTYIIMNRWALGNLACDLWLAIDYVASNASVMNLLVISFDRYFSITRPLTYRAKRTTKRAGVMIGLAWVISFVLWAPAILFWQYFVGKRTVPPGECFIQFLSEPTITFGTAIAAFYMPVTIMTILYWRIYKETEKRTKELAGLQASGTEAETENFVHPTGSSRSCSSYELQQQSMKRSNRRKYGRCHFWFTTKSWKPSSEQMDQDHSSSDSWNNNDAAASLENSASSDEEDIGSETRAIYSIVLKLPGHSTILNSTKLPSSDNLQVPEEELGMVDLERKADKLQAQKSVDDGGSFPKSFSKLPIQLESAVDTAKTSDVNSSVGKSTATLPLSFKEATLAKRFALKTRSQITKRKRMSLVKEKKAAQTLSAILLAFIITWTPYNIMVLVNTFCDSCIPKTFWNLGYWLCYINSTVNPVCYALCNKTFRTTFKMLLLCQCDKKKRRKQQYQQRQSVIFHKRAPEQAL

| SMILES | Emax ([1]; FLIPR calcium) [%] | Emax (M4 mAChR; cAMP TR-FRET with forskolin) [%] | EC50 ([2]; FLIPR calcium) [µM] | Emax ([1]; FLIPR) [%] | Emax (M4 mAChR; cAMP assay) [%] | EC50 ([2]; FLIPR) [µM] | Emax ([3]; FLIPR calcium) [%] | Emax ([3]; FLIPR) [%] |
| --- | --- | --- | --- | --- | --- | --- | --- | --- |
| CCOC(=O)N1CC2(CC[C@@H](N3CCN(c4cc(F)cnc4-c4conc4C)CC3)C2)C1 [Compound A140] | 19 to 49.9 | 80 to 100 | > 10 | – | – | – | – | – |
| CCOC(=O)N1CC2(CC[C@@H](N3CCN(c4cc(F)cnc4-c4cnc(F)nc4)CC3)C2)C1 [Compound A184] | – | – | – | 19 to 49.9 | 80 to 100 | > 10 | – | – |
| CCOC(=O)N1CC2(CC[C@@H](N3CCN(c4cc(F)cnc4-c4ccc(CO)o4)CC3)C2)C1 [Compound A91] | – | 80 to 100 | > 10 | – | – | – | 19 to 49.9 | – |
| CCOC(=O)N1CC2(CC[C@@H](N3CCN(c4cccnc4-c4cncc(OC)c4)CC3)C2)C1 [Compound A1, ethyl (6R)-6-[4-[2-(5-methoxy-3-pyridyl)-3-pyridyl]piperazin-1-yl]-2-azaspiro[3.4]octane-2-carboxylate] | – | 80 to 100 | > 10 | – | – | – | 19 to 49.9 | – |
| CCOC(=O)N1CC2(CC[C@@H](N3CCN(c4cc(F)cnc4-c4cnc(NC(C)C)nc4)CC3)C2)C1 [Compound A87] | 19 to 49.9 | 80 to 100 | > 10 | – | – | – | – | – |
| CCOC(=O)N1CC2(CC[C@@H](N3CCN(c4cc(F)cnc4-c4cnc(O)c(C)c4)CC3)C2)C1 [Compound A166] | – | – | – | – | 80 to 100 | > 10 | – | 19 to 49.9 |
| CCOC(=O)N1CC2(CC[C@@H](N3CCN(c4cc(F)cnc4-c4ccc(C(=O)NC)cc4)CC3)C2)C1 [Compound A103] | 19 to 49.9 | 80 to 100 | > 10 | – | – | – | – | – |
| CCOC(=O)N1CC2(CC[C@@H](N3CCN(c4cc(F)cnc4-c4ccnn4C)CC3)C2)C1 [Compound A67] | 19 to 49.9 | 80 to 100 | > 10 | – | – | – | – | – |
| CCOC(=O)N1CC2(CC[C@@H](N3CCN(c4cc(F)cnc4-c4cnc(OC)nc4)CC3)C2)C1 [Compound A146] | 19 to 49.9 | 80 to 100 | > 10 | – | – | – | – | – |
| CCOC(=O)N1CC2(CC[C@@H](N3CCN(c4cc(F)cnc4-c4cn/c(=N\C)[nH]c4)CC3)C2)C1 [Compound A70] | 19 to 49.9 | 80 to 100 | > 10 | – | – | – | – | – |
| CCOC(=O)N1CC2(CC[C@@H](N3CCN(c4cc(F)cnc4-c4cnc(OC(C)C)nc4)CC3)C2)C1 [Compound A158] | – | – | – | 19 to 49.9 | 80 to 100 | > 10 | – | – |
| CCOC(=O)N1CC2(CC[C@@H](N3CCN(c4cc(F)cnc4-c4cnc5c(c4)ncn5C)CC3)C2)C1 [Compound A51] | 19 to 49.9 | 80 to 100 | > 10 | – | – | – | – | – |
| CCOC(=O)N1CC2(CC[C@@H](N3CCN(c4cc(F)cnc4-c4ccccc4O)CC3)C2)C1 [Compound A104] | 19 to 49.9 | 80 to 100 | > 10 | – | – | – | – | – |
| CCOC(=O)N1CC2(CC[C@@H](N3CCN(c4cc(F)cnc4-c4ccc(F)nc4)CC3)C2)C1 [Compound A2, ethyl (6R)-6-[4-[5-fluoro-2-(6-fluoro-3-pyridyl)-3-pyridyl]piperazin-1-yl]-2-azaspiro[3.4]octane-2-carboxylate] | 19 to 49.9 | 80 to 100 | > 10 | – | – | – | – | – |
| CCOC(=O)N1CC2(CC[C@@H](N3CCN(c4cc(F)cnc4-c4cnn(CC)c4)CC3)C2)C1 [Compound A74] | – | 80 to 100 | > 10 | – | – | – | 19 to 49.9 | – |
| CCOC(=O)N1CC2(CC[C@@H](N3CCN(c4cc(F)cnc4-c4cnc5ccnn5c4)CC3)C2)C1 [Compound A100] | 19 to 49.9 | 80 to 100 | > 10 | – | – | – | – | – |
| CCOC(=O)N1CC2(CC[C@@H](N3CCN(c4cc(F)cnc4-c4ccnn4CC)CC3)C2)C1 [Compound A93] | 19 to 49.9 | 80 to 100 | > 10 | – | – | – | – | – |
| CCOC(=O)N1CC2(CC[C@@H](N3CCN(c4cc(F)cnc4-c4cnoc4C)CC3)C2)C1 [Compound A113] | 19 to 49.9 | 80 to 100 | > 10 | – | – | – | – | – |
| CCOC(=O)N1CC2(CC[C@@H](N3CCN(c4cc(F)cnc4-c4ccc(NC(C)=O)nc4)CC3)C2)C1 [Compound A75] | 19 to 49.9 | 80 to 100 | > 10 | – | – | – | – | – |
| CCOC(=O)N1CC2(CC[C@@H](N3CCN(c4cc(F)cnc4-c4cnc(OC)c(F)c4)CC3)C2)C1 [Compound A139] | < 19 | 80 to 100 | > 10 | – | – | – | – | – |
| CCOC(=O)N1CC2(CC[C@@H](N3CCN(c4cc(F)cnc4-c4cccnc4OCC)CC3)C2)C1 [Compound A49] | 50 to 79.9 | 80 to 100 | > 10 | – | – | – | – | – |
| CCOC(=O)N1CC2(CC[C@@H](N3CCN(c4cc(F)cnc4-c4cncs4)CC3)C2)C1 [Compound A59] | 19 to 49.9 | 80 to 100 | > 10 | – | – | – | – | – |
| CCOC(=O)N1CC2(CC[C@@H](N3CCN(c4cc(F)cnc4-c4ccncc4)CC3)C2)C1 [Compound A53] | 19 to 49.9 | 80 to 100 | > 10 | – | – | – | – | – |
| CCOC(=O)N1CC2(CC[C@@H](N3CCN(c4cc(F)cnc4N4CCOCC4)CC3)C2)C1 [Compound A289] | – | – | – | 19 to 49.9 | 80 to 100 | > 10 | – | – |
| CCOC(=O)N1CC2(CC[C@@H](N3CCN(c4cc(F)cnc4-c4cnc(C)nc4)CC3)C2)C1 [Compound A185] | – | – | – | 19 to 49.9 | 80 to 100 | > 10 | – | – |
| CCOC(=O)N1CC2(CC[C@@H](N3CCN(c4cccnc4N4CCCC4)CC3)C2)C1 [Compound A3, ethyl (6R)-6-[4-(2-pyrrolidin-1-yl-3-pyridyl)piperazin-1-yl]-2-azaspiro[3.4]octane-2-carboxylate] | 19 to 49.9 | – | > 10 | – | – | – | – | – |
| CCOC(=O)N1CC2(CC[C@@H](N3CCN(c4cc(F)cnc4-c4cncc(O)c4)CC3)C2)C1 [Compound A82] | 19 to 49.9 | 80 to 100 | > 10 | – | – | – | – | – |
